Results on one compound are retold here after patent US8871801B2, “Method of treating acquired perforating dermatosis with cantharidin” (priority 2011, dated 2014).

Data set [1] has as its system acquired perforating dermatosis lesions. As to the kind of experiment: Topical cantharidin treatment of a patient with acquired perforating dermatosis (case example). It counts as in vivo, human. The source says:
A person presented a six-month history of pruritic, hyperpigmented papules with central, hyperkeratotic plugs of bilateral lower extremities (FIG. 1). The trunk, head, upper extremities, volar surfaces and mucous membranes were spared. Their past medical history was significant for chronic renal failure treated for the past four years with peritoneal dialysis, a 30-year history of insulin-dependent diabetes mellitus, hypercholesterolemia, hypertension, coronary artery bypass, hypothyroidism, and hyperparathyroidism. There was no family history of similar skin lesions. […] The clinical and histopathologic features supported the diagnosis of an acquired perforating disorder associated with renal disease.
Over the next six months, the patient was treated with intralesional triamcinolone at 10 mg/cc, topical clobetasol, diflorasone, tacrolimus, tazarotene and ammonium lactate. They declined narrowband UVB phototherapy. They were also given oral hydroxine and fexofenadine for their pruritus.
While a therapy of fexofenadine […] bid, ammonium lactate 12% cream bid, and tazarotene 0.1% cream qd were continued, cantharidin at 0.7 wt % (Canthacur® Pharmascience Inc., Montreal, Canada) was applied to lesions on the right medial calf. Cantharidin was applied for eight hours under occlusion. The vehicle was a solution containing cantharidin 0.7 wt % in acetone, castor oil, collodion, ethoxyethanol, ethyl cellulose, and polyoxyethylene octyl phenol. “bid” means twice per day. “qd” means once per day.
The film was then occluded using Blenderm® tape, which was kept on for 8 hours before it was washed off. Within 2 days, multiple bullae formed at the sites of cantharidin application (FIG. 2). There was vesicle formation at site of cantharidin application. The patient reported mild pain at these sites for the first 2 days. A week after application, a biopsy of the blistered lesion was taken. […] The blister roofs were then removed by paring them with a 15-blade at the edge of the lesion to find the blister plane and then lifting upwards. […] The lichenified papules and hyperkeratotic cores were no longer present and the leg was smooth.
Pruritus was resolved in the treated lesions. Cantharidin was subsequently applied under Tegaderm® dressing (3M Corp.) occlusion to multiple lesions of both legs. […] In a five-month follow up, the patient reported no pruritus on the treated lesions. Treated lesions were smooth. […] Cantharidin provides symptomatic relief but may not prevent the formation of new lesions.

The next data set has as its system skin. To be noted: general statement in the description; cited from earlier work.

With `C[C@@]12C(=O)OC(=O)[C@]1(C)[C@H]1CC[C@@H]2O1` [cantharidin, Cantharidin], the “biopsy of the blistered lesion (histology)” value in data set [1] (a week after application of cantharidin 0.7 wt %) was “focal acantholysis and scattered necrotic keratinocytes”. Also, in data set [1] (after cantharidin 0.7 wt % treatment and debridement), the “pruritus in the treated lesions” value is “resolved”. Moreover, the “time to formation of multiple bullae at the sites of cantharidin application” value in data set [1] (cantharidin 0.7 wt % solution, lesions on right medial calf, 8 hours under occlusion (Blenderm tape)) is on record as no more than 2 days. Also, the “pain reported by the patient at application sites” value in data set [1] (cantharidin 0.7 wt %, 8 hours under occlusion, first 2 days) was “mild pain”. In addition, the “effectiveness of treatment on multiple lesions of both legs” value in data set [1] (cantharidin applied under Tegaderm dressing occlusion) was “effective in most lesions”. In data set [1] (five-month follow up), the “appearance of treated lesions at follow up” value is on record as “smooth”, the “formation of new lesions at follow up” value is “A few new lesions formed” and the “pruritus on the treated lesions at follow up” value was “no pruritus”. Moreover, the “time to blister formation after topical treatment” value with skin is 24 to 48 h.
